As a reminder, the MIC99 is an inhibitory concentration at the 99% level, which refers to growth in some studies and to a panel of isolates in others. Usually logP stands for the decadic logarithm of the partition coefficient of the neutral form, usually between octanol and water. What is called solubility is the concentration that dissolves in the medium under given conditions. For orientation: IC50 means the point on the concentration scale where inhibition reaches its midpoint. The MIC is the lowest concentration that inhibits growth of the organism.

Data set [1] has as its system Staphylococcus aureus. The data set is described as follows: Antibacterial activity against methicillin-susceptible Staphylococcus aureus CMCC 26003 assessed as growth inhibition after 18 hrs by broth microdilution method. The class given is functional. Conditions: CMCC 26003, 18 h. In general terms: Broth dilution looks for growth in wells or tubes with falling amounts of substance.

Data set [2] relates to Staphylococcus aureus. The data set is described as follows: Antibacterial activity against methicillin-susceptible Staphylococcus aureus ATCC 6538 assessed as growth inhibition after 18 hrs by broth microdilution method. The class given is functional. Conditions: ATCC 6538, 18 h.
Data set [3] in a line: Selectivity index, ratio of IC50 for African green monkey Vero cells to MIC for Mycobacterium tuberculosis H37RV ATCC 27294. In kind it is toxicity, cell-based. The conditions noted are these: read-out: Selectivity Index.
Data set [4] can be described thus: Lipophilicity, log P of the compound by HPLC analysis. In kind it is physicochemical.
Data set [5] has as its system Staphylococcus aureus. The data set is described as follows: Antibacterial activity against methicillin-susceptible Staphylococcus aureus ATCC 29213 assessed as growth inhibition after 18 hrs by broth microdilution method. In kind it is functional. The conditions noted are these: ATCC 29213, 18 h.
Another data set has as its system Pseudomonas aeruginosa. Nature of the data set: Antibacterial activity against Pseudomonas aeruginosa ATCC 27853 assessed as growth inhibition after 18 hrs by broth microdilution method. In kind it is functional. Conditions: ATCC 27853, 18 h.
Data set [6] has as its system Mycolicibacterium smegmatis. Nature of the data set: Antibacterial activity against Mycobacterium smegmatis assessed as growth inhibition after 18 hrs by broth microdilution method. In kind it is functional.
Data set [7] in a line: Aqueous solubility of the compound by HPLC analysis. The class given is physicochemical.
Data set [8] relates to Staphylococcus aureus. The data set is described as follows: Antibacterial activity against methicillin-resistant Staphylococcus aureus ATCC 33591 assessed as growth inhibition after 18 hrs by broth microdilution method. The class given is functional. Conditions: ATCC 33591, 18 h.
The test system of a further data set is Vero. The data set is described as follows: Cytotoxicity against African green monkey Vero cells after 48 hrs by MTT assay. The class given is cell-based. Conditions: Chlorocebus sabaeus. A general note: Tetrazolium assays rely on reduction of a dye to a coloured formazan, in cell work by metabolically active cells.
Another data set concerns Escherichia coli. Nature of the data set: Antibacterial activity against Escherichia coli ATCC 25922 assessed as growth inhibition after 18 hrs by broth microdilution method. Conditions: ATCC 25922, 18 h. In kind it is functional.
Data set [9] concerns Mycobacterium tuberculosis. Nature of the data set: Antitubercular activity against Mycobacterium tuberculosis H37RV ATCC 27294 assessed as growth inhibition after 3 to 11 days by microdilution method. In kind it is functional.
Data set [10] has as its system Staphylococcus aureus. Nature of the data set: Antibacterial activity against methicillin-susceptible Staphylococcus aureus ATCC 25923 assessed as growth inhibition after 18 hrs by broth microdilution method. The class given is functional. Conditions: ATCC 25923, 18 h.
Data set [11] relates to Staphylococcus aureus. Nature of the data set: Antibacterial activity against methicillin-resistant Staphylococcus aureus ATCC 43300 assessed as growth inhibition after 18 hrs by broth microdilution method. In kind it is functional. The conditions noted are these: ATCC 43300, 18 h.

Values after ≈ are worked out from the molar mass of the structure shown.

Turning to `CC(=O)NC[C@H]1CN(c2ccc(OC[C@@H]3CN(c4ccccc4)C(=O)O3)c(F)c2)C(=O)O1`, the MIC99 with Staphylococcus aureus [1] was 16 µg/mL (≈ 36.1 µM); in the data set on Staphylococcus aureus [2], 8 µg/mL (≈ 18 µM); with Staphylococcus aureus [5] it was 16 µg/mL (≈ 36.1 µM); in the data set on Pseudomonas aeruginosa, above 32 µg/mL; in data set [6] it was above 64 µg/mL; in the data set on Staphylococcus aureus [8], 16 µg/mL (≈ 36.1 µM). The MIC99 in the data set on Escherichia coli is above 32 µg/mL; in the data set on Staphylococcus aureus [10] it was 16 µg/mL (≈ 36.1 µM); in the data set with Staphylococcus aureus [11], 16 µg/mL (≈ 36.1 µM). Moreover, the selectivity ratio in data set [3] is above 40000. The logP in [4] was found to be 1.78. The compound also registered a solubility in [7] of 14 µM (≈ 6.21 µg/mL). Also, the IC50 with Vero is above 5000 µg/mL. Moreover, the minimum inhibitory concentration (MIC) in data set [9] came out at 0.125 µg/mL (≈ 0.282 µM).

Take `CC(=O)NC[C@H]1CN(c2ccc(OC[C@H]3CN(c4ccccc4)C(=O)O3)c(F)c2)C(=O)O1`: the MIC99 is 4 µg/mL (≈ 9.02 µM) in the data set on Staphylococcus aureus [1]; 4 µg/mL (≈ 9.02 µM) in the data set with Staphylococcus aureus [2]; 8 µg/mL (≈ 18 µM) in the data set on Staphylococcus aureus [5]; above 32 µg/mL with Pseudomonas aeruginosa; 32 µg/mL (≈ 72.2 µM) in data set [6]; 16 µg/mL (≈ 36.1 µM) in the data set with Staphylococcus aureus [8]. The MIC99 in the data set on Escherichia coli is above 32 µg/mL; with Staphylococcus aureus [10], 8 µg/mL (≈ 18 µM); in the data set on Staphylococcus aureus [11] it was 8 µg/mL (≈ 18 µM). Besides, the selectivity ratio in data set [3] worked out at 254. Further, the logP in data set [4] was 1.86. This compound returned a solubility in data set [7] of 164 µM (≈ 72.7 µg/mL). In addition, in the data set on Vero, it took 63.6 µg/mL (≈ 143 µM) to reach half-maximal inhibition (IC50). Further, the minimum inhibitory concentration (MIC) in data set [9] came to 0.25 µg/mL (≈ 0.564 µM).

For `COc1ccc(N2C[C@@H](COc3ccc(N4C[C@H](CNC(C)=O)OC4=O)cc3F)OC2=O)cc1`, the MIC99 was 8 µg/mL (≈ 16.9 µM) with Staphylococcus aureus [1]; 8 µg/mL (≈ 16.9 µM) in the data set on Staphylococcus aureus [2]; 16 µg/mL (≈ 33.8 µM) in the data set with Staphylococcus aureus [5]; above 32 µg/mL in the data set with Pseudomonas aeruginosa; above 64 µg/mL in data set [6]; 16 µg/mL (≈ 33.8 µM) in the data set on Staphylococcus aureus [8]. Further, the MIC99 was above 32 µg/mL with Escherichia coli, 16 µg/mL (≈ 33.8 µM) in the data set with Staphylococcus aureus [10] and 16 µg/mL (≈ 33.8 µM) with Staphylococcus aureus [11]. For the same compound, in data set [3], the selectivity ratio came out at 152. Also, the lipophilicity (logP) in data set [4] stood at 1.91. The compound also showed a solubility in data set [7] of 132 µM (≈ 62.5 µg/mL). The IC50 with Vero was 19.1 µg/mL (≈ 40.3 µM). For the same compound, in data set [9], the MIC was 0.125 µg/mL (≈ 0.264 µM).

Turning to `COc1ccc(N2C[C@H](COc3ccc(N4C[C@H](CNC(C)=O)OC4=O)cc3F)OC2=O)cc1`, the MIC99 was 4 µg/mL (≈ 8.45 µM) with Staphylococcus aureus [1]; 4 µg/mL (≈ 8.45 µM) with Staphylococcus aureus [2]; 8 µg/mL (≈ 16.9 µM) with Staphylococcus aureus [5]; above 32 µg/mL in the data set on Pseudomonas aeruginosa; above 64 µg/mL in data set [6]; 8 µg/mL (≈ 16.9 µM) in the data set with Staphylococcus aureus [8]. In addition, the MIC99 in the data set with Escherichia coli was above 32 µg/mL; with Staphylococcus aureus [10], 8 µg/mL (≈ 16.9 µM); with Staphylococcus aureus [11], 4 µg/mL (≈ 8.45 µM). In addition, in [3], the selectivity ratio was determined as 428. In [4], the lipophilicity (logP) amounted to 1.73. The same compound registered a solubility in [7] of 211 µM (≈ 99.9 µg/mL). In the data set with Vero, half-maximal inhibition (IC50) required 107 µg/mL (≈ 226 µM). Moreover, the MIC in data set [9] was 0.25 µg/mL (≈ 0.528 µM).

Turning to `COc1ccc(NC[C@H](O)COc2ccc(N3C[C@H](CNC(C)=O)OC3=O)cc2F)cc1`, the MIC99 with Staphylococcus aureus [1] was 4 µg/mL (≈ 8.94 µM); in the data set with Staphylococcus aureus [2], 4 µg/mL (≈ 8.94 µM); in the data set with Staphylococcus aureus [5] it was 8 µg/mL (≈ 17.9 µM); with Pseudomonas aeruginosa it was above 32 µg/mL; in data set [6], 64 µg/mL (≈ 143 µM); in the data set on Staphylococcus aureus [8], 16 µg/mL (≈ 35.8 µM). Besides, the MIC99 in the data set with Escherichia coli was above 32 µg/mL; in the data set on Staphylococcus aureus [10], 8 µg/mL (≈ 17.9 µM); in the data set with Staphylococcus aureus [11], 8 µg/mL (≈ 17.9 µM). In data set [4], this compound gave a logP of 0.95. The compound further had a solubility in data set [7] of 56 µM (≈ 25.1 µg/mL). In data set [9], the MIC is 8 µg/mL (≈ 17.9 µM).

With `CC(=O)NC[C@H]1CN(c2ccc(OC[C@@H](O)CNc3ccccc3)c(F)c2)C(=O)O1`, the MIC99 in the data set on Staphylococcus aureus [1] is 4 µg/mL (≈ 9.58 µM); with Staphylococcus aureus [2], 4 µg/mL (≈ 9.58 µM); with Staphylococcus aureus [5], 8 µg/mL (≈ 19.2 µM); with Pseudomonas aeruginosa it was above 32 µg/mL; in data set [6] it was above 64 µg/mL; in the data set on Staphylococcus aureus [8], 8 µg/mL (≈ 19.2 µM). Further, the MIC99 is above 32 µg/mL with Escherichia coli, 8 µg/mL (≈ 19.2 µM) in the data set on Staphylococcus aureus [10] and 4 µg/mL (≈ 9.58 µM) in the data set on Staphylococcus aureus [11]. In addition, the logP in data set [4] came to 1.42. Moreover, the solubility in [7] came out at 124 µM (≈ 51.8 µg/mL). Moreover, in data set [9], the minimal inhibitory concentration (MIC) turned out to be 8 µg/mL (≈ 19.2 µM).

As for `CC(=O)NC[C@H]1CN(c2ccc(N3CCOCC3)c(F)c2)C(=O)O1` [LINEZOLID], the MIC99 in the data set with Staphylococcus aureus [1] is 2 µg/mL (≈ 5.93 µM); with Staphylococcus aureus [2], 1 µg/mL (≈ 2.96 µM); with Staphylococcus aureus [5], 2 µg/mL (≈ 5.93 µM); in the data set with Pseudomonas aeruginosa it was above 32 µg/mL; in the data set with Staphylococcus aureus [8] it was 2 µg/mL (≈ 5.93 µM); with Escherichia coli, above 32 µg/mL. The MIC99 in the data set on Staphylococcus aureus [10] and in the data set with Staphylococcus aureus [11] was 2 µg/mL (≈ 5.93 µM) throughout. In addition, in [9], the minimal inhibitory concentration (MIC) worked out at 0.25 µg/mL (≈ 0.741 µM).
